# Test system: RPChiPS771 hiPSCs
# Assay: Differentiation of RPChiPS771 into definitive endoderm with or without CHIR99021, SOX17+ cells
# Assay type: cell-based, human
# Settings: protocol B (CHIR99021 added) versus protocol A (without CHIR99021)
# Protocol: Medium 1 (M1): Initiation of differentiation was done by replacing the culture with Medium 1, including DMEM with 4, 500 mg/L glucose supplemented with 3 μM CHIR99021 (Stemgent), 100 ng/mL recombinant human activin-A (Cell Guidance Systems Ltd), and 2% B27 insulin (+) supplement (Life Technologies). On days 1 and 2, the media were replaced with medium 1 without CHIR99021. Cells were fixed in 4% paraformaldehyde (NACALAI TESQUE, INC.) in PBS, permeabilized with 0.1% Triton X-100 (NACALAI TESQUE, INC.), and were then blocked with 20% Blocking One (NACALAI TESQUE, INC., Japan) in PBST (0.1% Tween-20 in PBS). Antibodies were diluted in 20% Blocking One (NACALAI TESQUE, INC., Japan) in PBST (0.1% Tween-20 in PBS). Cells were counterstained with […] (DAPI) (Roche Diagnostics K.K., Switzerland). The following primary antibodies were used: mouse anti-Oct3/4 (Santa Cruz Biotechnology, Inc.), goat anti-Sox17 (R&D Systems, Inc.), goat anti-PDX1 (R&D Systems, Inc.), guinea pig anti-insulin (Dako), rabbit anti-C-peptide (Cell Signaling Technology, Inc.), and mouse anti-Nkx6.1 (Developmental Studies Hybridoma Bank). […] Positive cells versus total cells (DAPI-positive cells) were quantified using ImageXpress Micro cellular imaging system (Molecular Devices, LLC.).
structure (smiles),measurement,value
"Cc1c[nH]c(-c2cnc(NCCNc3ccc(C#N)cn3)nc2-c2ccc(Cl)cc2Cl)n1 [CHIR99021, 6-[[2-[[4-(2,4-dichlorophenyl)-5-(4-methyl-1H-imidazole-2-yl)-2-pyrimidinyl]amino]ethyl]amino]nicotinonitrile]",proportion of SOX17+ cells,a higher proportion of SOX17+ cells overall

# Source: patent US20210115397A1, “METHOD FOR PROMOTING DIFFERENTIATION OF PLURIPOTENT STEM CELLS” (TOKYO INSTITUTE OF TECHNOLOGY, priority 2018, published 2021)
